Data set [1] can be described thus: Metabolic stability experiment of mouse liver microsomes. Type of data set: in vitro ADME. The method, then:
PB solution (100 mM), MgCl2 solution (300 mM), NADPH solution (2.04 mM), and mouse liver microsome (SHQY catalog number: M1000, batch number: 2110330) solution (1.00 mg/mL) were prepared respectively. […] Then, 100 µL of mouse liver microsome solution was added to a 96-well sample plate. For the 0 min sample, acetonitrile solution containing the internal standard was first added; then, 2 µL of 100 µM working solution was added; followed by the addition of 98 µL of pre-warmed 2.04 mM NADPH at 37°C. For the 5 min, 15 min, 30 min, 45 min, and 60 min samples, 2 µL of 100 µM working solution was first added; followed by the addition of 98 µL of pre-warmed 2.04 mM NADPH at 37°C to initiate the reaction; upon reaching the respective time points, a solution of acetonitrile containing the internal standard was added to terminate the reaction. For the NCF60 sample, 2 µL of 100 µM working solution was first added; followed by the addition of 98 µL of pre-warmed PB at 37°C to initiate the reaction; upon reaching the respective time points, a solution of acetonitrile containing the internal standard was added to terminate the reaction. During the experiment, all samples were incubated in a 37°C water bath. All samples were shaken on an oscillator at 800 rpm for 10 min, then centrifuged at 3200 g for 20 min. The supernatant was aspirated, diluted with deionized water at the corresponding ratio, and analyzed by LC-MS/MS. The remaining percentage of the compound at each time point was obtained by dividing the peak area ratio of the compound at 5, 15, 30, 45, and 60 min by the peak area ratio at 0 min. The half-life (T1/2) of the compound was then calculated using Excel. Table 2: Mouse liver microsome stability results of compounds from some examples
A general note: Microsomes from liver hold many membrane-bound enzymes, among them those of drug oxidation.

The subject of the next data set is SREBP pathway. Kind of data set: SREBP luciferase reporter gene system (SRE-luciferase assay). The class given is cell-based, human. Particulars: Huh-7/SRE-luc cells, sterol-deficient medium, 0.01-10 µM. A digest of the protocol: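 Huh-7 cells stably carrying LDLR promoter-luciferase plus GFP were treated 16 h in sterol-deficient medium (5% lipoprotein-deficient serum, 2 µM lovastatin, 10 µM mevalonic acid) at 0.01–10 µM. Luciferase/GFP ratio measured as pathway activity; inhibition versus DMSO fitted to a four-parameter model for IC50.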
(In a reporter assay the amount or activity of a reporter protein is the signal.)

Data set [2] relates to Fatty Acid Synthase (FASN) gene. Kind of data set: Inhibition of FASN gene expression (qPCR) in Huh-7 cells. Type of data set: cell-based, human. Particulars: read-out: FASN IC50. A digest of the protocol: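 Huh-7 cells switched to starvation DMEM (5% LPDS, 2 µM lovastatin, 10 µM mevalonate) and treated 16 h with compound, top 3000 nM, 3-fold dilutions, 5 concentrations. FASN mRNA by RT-qPCR; inhibition relative to DMSO, IC50 from four-parameter fit.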
For orientation: In qPCR the cycle at which signal appears reflects the starting amount.

Data set [3] is described as follows: Solubility in fasted-state simulated intestinal fluid (FaSSIF). The class given is physicochemical. Particulars: FaSSIF pH 6.5, 300 µM sample solution, room temperature. The method, then:
Compound powder was dissolved in DMSO to prepare a 10.0 mM stock solution for later use. 0.021 g NaOH, 0.198 g NaH2PO4, and 0.309 g NaCl were weighed and added to 50.0 mL of ultrapure water. After thorough mixing, the pH was adjusted to 6.5 using HCl or NaOH. Then, 0.112 g of FaSSIF powder was added. After complete dissolution, the solution was allowed to stand at room temperature for 2 hours for later use. A certain volume of the compound stock solution was added to a certain volume of FaSSIF to prepare a 300 µM sample solution, which was mixed at room temperature under 1000 rpm for 1 hour. After 1 hour, the sample was centrifuged, and a certain volume of supernatant was taken. The termination solution was added to precipitate the sample, which was then thoroughly mixed and centrifuged for 20 minutes. The supernatant was then taken again, diluted with dilution solution, and then analyzed by liquid chromatography-tandem mass spectrometry (LC-MS/MS). The concentration of the test compound in the samples was quantitatively determined using LC-MS/MS. Table 3: FaSSIF solubility results of compounds from some examples

Where [4] appears, read: Homo sapiens, Huh-7, 16 h, Huh-7 cells, starvation medium, 16 hours, qPCR, class symbols.
Setting [5] is: FaSSIF, pH 6.5, fassif, kinetic from dmso stock.

Consider twelve compounds from patent EP4752152A1, “STEROID COMPOUND, AND PREPARATION METHOD THEREFOR AND USE THEREOF” (Cholesgen (Shanghai) Co.Ltd., priority 2023, dated 2025).

Values after ≈ are worked out from the molar mass of the structure shown. Like-named read-outs stand apart in the source and are kept apart here.

The compound `COc1cc(F)ccc1C(O)CCC[C@@H](C)[C@H]1CC[C@H]2C3=C(F)C[C@H]4[C@@H](O)[C@@H](O)CC[C@]4(C)[C@H]3CC[C@]12C` (stereo partly drawn) [Compound 36, (1R,3aR,5aR,6R,7S,9aR,9bR,11aR)-4-fluoro-1-[(2R)-6-(4-fluoro-2-methoxyphenyl)-6-hydroxyhexan-2-yl]-9a,11a-dimethyl-2,3,3a,5,5a,6,7,8,9,9a,9b,10,11,11a-tetradecahydro-1H-cyclopenta[1,2-a]phenanthrene-6,7-diol] returned a half-life at 1 µM in data set [1] of over 3.1 h. Besides, the IC50 in the data set on SREBP pathway (Homo sapiens, Huh-7, 16 h) worked out at 0.2 µM.
Turning to `COc1ccccc1C(O)CCC[C@@H](C)[C@H]1CC[C@H]2[C@H]3[C@H](CC[C@]12C)[C@@]1(C)CC[C@H](O)CC1CC3(F)F` (stereo partly drawn) [Compound 72, (1R,3aS,3bR,7S,9aS,9bS,11aR)-4,4-difluoro-1-[(2R)-6-hydroxy-6-(2-methoxyphenyl)hexan-2-yl]-9a,11a-dimethylhexadecahydro-1H-cyclopenta[1,2-a]phenanthren-7-ol], the half-life at 1 µM in data set [1] came out at 1.38 h. Besides, the IC50 in the data set with SREBP pathway (Homo sapiens, Huh-7, 16 h) is 0.14 µM; in data set [2] (setting [4]), under 0.2 µM.
In data set [1], `COc1cccc(F)c1C(O)CCC[C@@H](C)[C@H]1CC[C@H]2[C@@H]3CC[C@H]4[C@@H](O)[C@@H](O)CC[C@]4(C)[C@H]3CC[C@]12C` (stereo partly drawn) [Compound 20, 24-[(2-Fluoro-6-methoxyphenyl)(hydroxy)methyl]-5α-cholane-3β,4β-diol] returned a half-life at 1 µM of 0.498 h. Moreover, in the data set on SREBP pathway (Homo sapiens, Huh-7, 16 h), the IC50 amounted to 0.23 µM.
As to `COc1cccc([C@H](O)CCC[C@@H](C)[C@H]2CC[C@H]3[C@H]4[C@H](CC[C@]23C)[C@@]2(C)CC[C@H](O)[C@H](O)[C@@H]2CC4(F)F)c1OC` [Compound 71, (1R,3aS,3bS,5aR,6R,7S,9aR,9bS,11aR)-1-[(2R,6R)-6-(2,3-dimethoxyphenyl)-6-hydroxyhexan-2-yl]-4,4-difluoro-9a,11a-dimethylhexadecahydro-1H-cyclopenta[1,2-a]phenanthrene-6,7-diol], the half-life at 1 µM in data set [1] was found to be 1.05 h. Moreover, the IC50 in the data set with SREBP pathway (Homo sapiens, Huh-7, 16 h) is 0.083 µM; in data set [2] (setting [4]), under 0.2 µM.
Taken in the same sequence, the figures for `COc1cccc([C@@H](O)CCC[C@@H](C)[C@H]2CC[C@H]3[C@H]4[C@H](CC[C@]23C)[C@@]2(C)CC[C@H](O)[C@H](O)[C@@H]2CC4(F)F)c1OC` [Compound 70, (1R,3aS,3bS,5aR,6R,7S,9aR,9bS,11aR)-1-[(2R,6S)-6-(2,3-dimethoxyphenyl)-6-hydroxyhexan-2-yl]-4,4-difluoro-9a,11a-dimethylhexadecahydro-1H-cyclopenta[1,2-a]phenanthrene-6,7-diol] were 0.581 h, 0.211 µM and under 0.2 µM.
`C[C@H](CCC1CC(N)C1)[C@H]1CC[C@H]2[C@@H]3CC[C@H]4C[C@@H](O)CC[C@]4(C)[C@H]3CC[C@]12C` (stereo partly drawn) [Compound 136, (20R)-20-[2-(3-aminocyclobutyl)ethyl]-5α-pregnan-3β-ol] registered a half-life at 1 µM in data set [1] of 1.6 h.
In data set [3] (setting [5]), `COc1nc(F)ccc1C(O)CCC[C@@H](C)[C@H]1CC[C@H]2[C@H]3[C@H](CC[C@]12C)[C@@]1(C)CC[C@H](O)[C@H](O)[C@@H]1CC3(F)F` (single isomer, unassigned) [Compound 188, (1R,3aS,3bS,5aR,6R,7S,9aR,9bS,11aR)-4,4-difluoro-1-[(2R,6S)-6-(6-fluoro-2-methoxypyridin-3-yl)-6-hydroxyhexan-2-yl]-9a,11a-dimethylhexadecahydro-1H-cyclopenta[1,2-a]phenanthrene-6,7-diol or (1R,3aS,3bS,5aR,6R,7S,9aR,9bS,11aR)-4,4-difluoro-1-[(2R,6R)-6-(6-fluoro-2-methoxypyridin-3-yl)-6-hydroxyhexan-2-yl]-9a,11a-dimethylhexadecahydro-1H-cyclopenta[1,2-a]phenanthrene-6,7-diol] returned a solubility at 1 h of 139 µM (≈ 76.9 µg/mL). For the same compound, the IC50 was 0.142 µM with SREBP pathway (16 hours) and under 0.2 µM in data set [2] (setting [4]).
Take `C[C@H](CCCC(O)c1ccc2c(n1)OC(F)(F)O2)[C@H]1CC[C@H]2[C@H]3[C@H](CC[C@]12C)[C@@]1(C)CC[C@H](O)[C@H](O)[C@@H]1CC3(F)F` (single isomer, unassigned) [Compound 265]: in data set [3] (setting [5]), the solubility at 1 h was 107 µM (≈ 62.9 µg/mL). In addition, the IC50 in the data set with SREBP pathway (16 hours) was 0.006 µM; in data set [2] (Homo sapiens, Huh-7, 16 h) it was under 0.2 µM.
Compound `COc1nccc(F)c1C(O)CCC[C@@H](C)[C@H]1CC[C@H]2[C@H]3[C@H](CC[C@]12C)[C@@]1(C)CC[C@H](O)[C@H](O)[C@@H]1CC3(F)F` (stereo partly drawn) [Compound 126, (1R,3aS,3bS,5aR,6R,7S,9aR,9bS,11aR)-4,4-difluoro-1-[(2R)-6-(4-fluoro-2-methoxypyridin-3-yl)-6-hydroxyhexan-2-yl]-9a,11a-dimethylhexadecahydro-1H-cyclopenta[1,2-a]phenanthrene-6,7-diol] displayed a half-life at 1 µM in data set [1] of 1.79 h. For the same compound, the IC50 in the data set on SREBP pathway (Homo sapiens, Huh-7, 16 h) was determined as 0.153 µM.
The compound `COc1nc(F)ccc1C(O)CCC[C@@H](C)[C@H]1CC[C@H]2[C@H]3[C@H](CC[C@]12C)[C@@]1(C)CC[C@H](O)[C@H](O)[C@@H]1CC3(F)F` (single isomer, unassigned) [Compound 189, (1R,3aS,3bS,5aR,6R,7S,9aR,9bS,11aR)-4,4-difluoro-1-[(2R,6R)-6-(6-fluoro-2-methoxypyridin-3-yl)-6-hydroxyhexan-2-yl]-9a,11a-dimethylhexadecahydro-1H-cyclopenta[1,2-a]phenanthrene-6,7-diol or (1R,3aS,3bS,5aR,6R,7S,9aR,9bS,11aR)-4,4-difluoro-1-[(2R,6S)-6-(6-fluoro-2-methoxypyridin-3-yl)-6-hydroxyhexan-2-yl]-9a,11a-dimethylhexadecahydro-1H-cyclopenta[1,2-a]phenanthrene-6,7-diol] registered a solubility at 1 h in data set [3] (60 min) of 157.08 µM (≈ 87 µg/mL). The IC50 is 0.0231 µM in the data set with SREBP pathway (16 hours) and under 0.2 µM in data set [2] (Huh-7 cells, starvation medium, 16 hours, qPCR, class symbols).
`C[C@H](CCCC(O)c1cccc2c1nnn2C)[C@H]1CC[C@H]2[C@H]3[C@H](CC[C@]12C)[C@@]1(C)CC[C@H](O)[C@H](O)[C@@H]1CC3(F)F` (stereo partly drawn) [Compound 272, (1R,3aS,3bS,5aR,6R,7 S,9aR,9bS,11aR)-4,4-Difluoro-1-[(2R)-6-hydroxy-6-(1-methylbenzo[d][1,2,3]triazol-4-yl)hexan-2-yl]-9a,11a-dimethylhexadecahyd ro-1H-cyclopenta[1,2-a]phenanthrene-6,7-diol] gave a solubility at 1 h in data set [3] (setting [5]) of 225 µM (≈ 126 µg/mL). In addition, the half-maximal inhibitory concentration (IC50) is 0.116 µM in the data set with SREBP pathway (Homo sapiens, Huh-7, 16 h) and under 0.2 µM in data set [2] (setting [4]).
Take `COc1cccc(F)c1C(O)CC[C@@H](C)[C@H]1CC[C@H]2[C@H]3[C@H](CC[C@]12C)[C@@]1(C)CC[C@H](O)[C@H](O)[C@@H]1CC3(F)F` (stereo partly drawn) [Compound 333, (1R,3aS,3bS,5aR,6R,7S,9aR,9bS,11aR)-4,4-difluoro-1-[(2R)-5-(2-fluoro-6-methoxyphenyl)-5-hydroxypentan-2-yl]-9a,11a-dimethylhexadecahydro-1H-cyclopenta[1,2-a]phenanthrene-6,7-diol]: in data set [3] (setting [5]), the solubility at 1 h was 148 µM (≈ 79.7 µg/mL). Also, the IC50 was 0.118 µM with SREBP pathway (Homo sapiens, Huh-7, 16 h) and 0.2 to 0.5 µM in data set [2] (setting [4]).

As a reminder, the half-life is the time in which the quantity being followed falls by half. Lower therefore signals rapid decline. A word on the IC50: it is the concentration that inhibits the measured activity by half. The term solubility denotes the concentration that dissolves in the medium under given conditions. Low readings indicate little dissolved substance, high ones much dissolved substance.
